Where two headings read alike, the source gives them in different places.
Key:
[1] = plasma pharmacokinetics by LC-MS/MS in patients; format: in vivo, human; conditions: human, plasma, oral, 300 mg, plasma; for AUC(0-t): read-out: AUClast of OKI-179; for Cmax: read-out: Cmax of OKI-179; for Tmax: read-out: Tmax of OKI-179
Method: Blood samples were collected immediately prior to the first dose on cycle 1 and day 1, and then at 0.25, 0.5, 1, 2, 4, 8, and 24 h after taking OKI-179 on days 1 and 15. Additional samples were collected pre-dose and 2 and 4 h after OKI-179 administration on day 18 in later cohorts. Blood samples were stabilized with sodium fluoride and formic acid immediately after collection to arrest the additional conversion of the prodrug OKI-179 to OKI-006. Plasma was further stabilized using ascorbic acid prior to low-temperature storage.
Plasma concentrations of OKI-179 and OKI-006 were analyzed using validated liquid chromatography-mass spectrometry (LC-MS/MS) (Quintara Discovery Inc., Hayward, CA, USA). OKI-006 contains a free thiol moiety that can reversibly react with endogenous molecules in the blood and tissue, resulting in “bound” OKI-006. The unreacted OKI-006 is considered “free”. As bound OKI-006 can reversibly convert to free OKI-006 in vivo, both the free and “total” (free plus bound) concentrations of OKI-006 are considered pharmacologically relevant and were therefore quantified as part of this study. Bioanalytically, the total OKI-006 was measured by chemically converting all bound OKI-006 to free OKI-006 prior to analysis using the free OKI-006 bioanalytical method.
The AUClast was calculated from time zero to the time of the last quantifiable concentration for OKI-179, free OKI-006, and total OKI-006.

[2] = tested on: histone acetylation (Ac-H3K27) in circulating T cells; experiment: histone acetylation in circulating T cells (PBMC flow cytometry); format: in vivo, human
Method: Blood samples for acetylated (Ac)-H3K27, Ac-H3K9, and Ac-lysine levels in peripheral blood mononuclear cells (PBMCs) were collected in cycle 1. Samples were collected immediately prior to dosing and at 2, 8, and 24 h post-dosing on days 1 and 15. Blood samples were processed within 3 h of collection, and isolated PBMCs were washed and resuspended in cell cell-freezing medium. Cells were stored at ≤−70 °C prior to shipment to the University of Texas at Austin Dell Medical School (UTDMS) for analysis. Briefly, patient PBMCs were thawed at 37 °C for 5 min, washed with flow wash buffer containing PBS/2% FBS/5 mM EDTA, and stained for 30 min on ice with the following: fixable viability dye (BioLegend 423106; Zombie NIR^TM, San Diego, CA, USA), CD3 (Biolegend; Clone OKT3), CD4 (BioLegend; Clone SK3), and CD8 (Biolegend; Clone RPA-T8). All samples were washed twice before being fixed and permeabilized using a BD Biosciences (Hunt Valley, MD, USA) Cytofix/Cytoperm™ kit (RRID: AB_2869008) according to the manufacturer’s protocol and stained for 30 min for intracellular acetylation markers: Ac-H3K27 (Cell Signaling Technology; Clone D5E4), Ac-H3K9 (Cell Signaling Technology, Danvers, MA, USA; Clone CFB11), and total Ac-lysine (BioLegend; Clone 15G10). All cells were analyzed on a Cytek Aurora (5 L 16UV-16V-14B-10YG-8R). Spectral unmixing was performed based on fluorophore-specific single-color cells and compensation bead (ThermoFisher 01-2222-41, Waltham, MA, USA) controls using SpectroFlo© software (v3). All post-acquisition analyses were performed using FlowJo software (v10.3). Results are shown as fold-changes from pre-dose values for each patient and day.
Descriptive statistics were used for baseline characteristics, safety assessments, pharmacokinetic variables, exploratory assessments, and efficacy analysis, including the duration of response and time to progression. Tables were used to summarize the data across the cohort of patients and various dosing groups. Geometric means were used to calculate plasma concentration-time profiles. […]

[3] = tested on: metastatic NRAS-mutated melanoma; design: method as in earlier work; conditions: combination with binimetinib, phase 2 data, previously treated with immunotherapy; cited from earlier work
[4] = 300-mg 5:2, Cycle 1 Day 15, geometric mean

Compound `CC(C)[C@H](N)C(=O)SCC/C=C/[C@@H]1CC(=O)NCc2nc(cs2)C(=O)NC(C)(C)C(=O)N[C@@H](C(C)C)C(=O)O1` [OKI-179, Bocodepsin] has an AUC(0-t) ([1]; 300 mg 5:2 cohort, mean single-dose) of 253 ng·h/mL, a Cmax ([1]; 300-mg 5:2, Cycle 1 Day 1, geometric mean, N=6) of 142 ng/mL and an AUC(0-t) ([1]; 300-mg 5:2, Cycle 1 Day 1, geometric mean) of 253 ng·h/mL. The Tmax ([1]; 300-mg 5:2, Cycle 1 Day 1, median) was 0.875 h, the half-life ([1]; 300-mg 5:2, Cycle 1 Day 1, median, read-out: t1/2 of OKI-179 (converted)) was 1.75 h and the AUC(0-t) [1, 4] was 374 ng·h/mL. It also gave a Cmax [1, 4] of 215 ng/mL, a Tmax ([1]; 300-mg 5:2, Cycle 1 Day 15, median) of 0.934 h and a half-life ([1]; 300-mg 5:2, Cycle 1 Day 15, median, read-out: t1/2 of OKI-179 (converted)) of 1.74 h. For the same compound, the half-life ([1]; day 15, 300 mg 5:2, read-out: terminal half-life (t1/2) of OKI-179 (converted)) was ~1.7 h, the “increase in histone acetylation” value ([2]; 300 mg doses, 2 h after dosing, days 1 and 15, T cells) was 6 fold and the “increase in H3K27 acetylation in CD4 T cells” value ([2]; doses >200 mg) was “greater than 6 fold”. The “increase in H3K27 acetylation in circulating T cells” value ([2]; doses of 200 mg or greater) was > 6 fold and the “overall response rate (ORR)” value [3] was 38%.

Source: article PMC10778198, “First-in-Human Dose-Escalation Study of the Novel Oral Depsipeptide Class I-Targeting HDAC Inhibitor Bocodepsin (OKI-179) in Patients with Advanced Solid Tumors” (Cancers, 2023)
